In patent US5428041A, “Antihypercholesterolemic bis-trifluoromethyl-substituted imidazolines and derivatives thereof” (The Du Pont Merck Pharmaceutical Company, priority 1992, dated 1995) one finds IC50 data, which are given here for 21 molecules.

Counter-ions that a name gives are not always drawn. Like-named read-outs stand apart in the source and are kept apart here.

Assay [1] concerns the target T1, Acyl-CoA: Cholesterol Acyltransferase (ACAT) (Rattus norvegicus, UniProt Q7TQM4).
T1 construct: centrifuged at 105,000×g for 1 hour to pellet the microsomes; from tissue; host or cells: liver microsomes of fasted male Sprague Dawley rats
T1 sequence (Q7TQM4 1-524): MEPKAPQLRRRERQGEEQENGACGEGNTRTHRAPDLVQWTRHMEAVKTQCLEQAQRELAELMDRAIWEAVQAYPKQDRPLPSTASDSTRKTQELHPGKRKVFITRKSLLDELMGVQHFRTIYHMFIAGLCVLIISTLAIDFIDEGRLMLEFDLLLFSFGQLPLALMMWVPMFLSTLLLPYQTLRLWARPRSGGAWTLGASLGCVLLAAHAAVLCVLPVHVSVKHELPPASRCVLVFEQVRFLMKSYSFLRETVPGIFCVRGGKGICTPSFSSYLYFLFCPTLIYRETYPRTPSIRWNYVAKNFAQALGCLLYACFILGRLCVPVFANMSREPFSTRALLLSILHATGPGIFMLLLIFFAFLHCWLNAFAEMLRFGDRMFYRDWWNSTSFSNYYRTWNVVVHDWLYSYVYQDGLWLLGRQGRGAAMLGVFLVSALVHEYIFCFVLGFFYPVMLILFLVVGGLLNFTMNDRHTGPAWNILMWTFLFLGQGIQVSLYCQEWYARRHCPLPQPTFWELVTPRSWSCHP
Briefly: Inhibition of Acyl-CoA:Cholesterol Acyltransferase (ACAT) in hepatic microsomes. It is filed as biochemical, Sprague Dawley rat. As for the experimental part: A. Assay of the Inhibition of Acyl-CoA: Cholesterol Acyltransferase (ACAT) in Hepatic Microsomes
The ability of the compounds to inhibit ACAT, the enzyme responsible for the intracellular synthesis of cholesteryl esters, was tested as follows. Male Sprague Dawley rates weighing 150-300 g were fed rat chow ad libitum. The animals were fasted for twenty-four hours prior to being sacrificed by decapitation. The livers were perfused in situ with 50 ml of cold 0.25M sucrose, excised and homogenized in three volumes of 0.1M phosphate buffer, pH 7.4, that contained 0.5 mM EDTA (ethylenediaminetetraacetic acid), 1.0 mM glutathione, 0.25M sucrose and 20 mM leupeptin. Microsomes were obtained by differential centrifugation; the supernatant from an initial spin at 15,000×g for 15 minutes was centrifuged at 105,000×g for 1 hour to pellet the microsomes. The microsomes were suspended in homogenization buffer, reisolated by centrifugation, and stored at -70° C. Microsomes were used within one month of preparation.
The control assay in a final volume of 200 μl consisted of 200 μg of microsomal protein, 75 μM ^14 C-oleoyl-CoA (10,000 dpm/nmol) in 0.1M phosphate, pH 7.4, that contained 1 mM glutathione. Compounds were added in 5-10 μl of DMSO (dimethyl sulfoxide or ethanol) and additional controls were run with DMSO or ethanol only. All components, except the oleoyl-CoA, were preincubated for 15 min. at 37° C. prior to the initiation of the reaction by the addition of oleoyl CoA. The assay was terminated after 10 min by the addition of 4 ml of chloroform:methanol (2:1, v/v). 20,000 dpm of ^3 H-cholesteryl oleate and 10 μg of unlabeled cholesteryl oleate and oleic acid were added as an internal standard and carrier, respectively. After allowing 10 min. for lipid extraction, 0.8 ml of deionized water was added to separate the solution into two phases. The lower chloroform phase was collected, dried under nitrogen and resuspended in 100 μl of chloroform. The sample containing the neutral lipids was spotted onto a Gelman ITLC-SA polysilicic acid gel-impregnated sheet, which was developed using a hexane: diethyl ether: acetic acid (170:30:1 v/v/v) mobile phase. The lipids were visualized by their interaction with iodine vapor and the cholesteryl ester spot was scraped into a scintillation vial and counted. The specific activity of ACAT in the control incubation averaged 260 pmol/min/mg microsomal protein. The inhibition of ACAT activity by the compounds is shown in Table 7; the data are expressed as the concentration at which ACAT activity is inhibited by 50% (IC50).

Assay [2] has as its system murine macrophage-like cell line J744.A1. Put plainly: Inhibition of cholesterol esterification in mammalian cells (macrophage). As to conditions: Mus musculus; J744.A1 macrophage-like cells loaded with ac-LDL, 14C oleic acid. Type of assay: cell-based. The procedure:
B. Assay of the Inhibition of Cholesterol Esterification in Mammalian Cells The esterification of cholesterol was determined in the murine macrophage-like cell line J744.A1. Cells were seeded in 35 mm wells at a density of 300,000 cells per well in 2 mls of Dulbecco's Modified Eagle Medium (DMEM) supplemented with 10% fetal bovine serum (FBS). Cells were incubated at 37° C. in an atmosphere of 5% CO2 and 93% humidity. After 24 hours the media was changed to 0.68 mls 10% FBS-DMEM containing 34 μg of acetylated human low density lipoprotein (ac-LDL) to increase the intracellular concentration of cholesterol and promote esterification. At 41 hours, various inhibitors were added to the cells in DMSO (10 μl/ml maximum). At 43 hours, the cells were pulsed with 0.1 mM ^14 C oleic acid (10,000 dpm/nmol) complexed with BSA (bovine serum albumin) to follow cholesterol ester formation. The experiment was terminated at 45 hours by washing the monolayers 3 times with 3 ml of Tris-buffered saline at 4° C. The lipids were extracted by incubating the monolayers with 1.5 ml of hexane: isopropanol (3:2, v/v) for 30 min. under gentle agitation. During this period, 10,000 dpm ^3 H-cholesteryl linoleate and 10 μg of cholesteryl oleate were added as an internal standard and carrier respectively. The organic solvent was remoted and the cells were washed with an additional 1.0 ml of hexane: isopropanol which was combined with the original extract. The cells were allowed to dry overnight, digested with 1.5 ml of 0.2 N sodium hydroxide for 1 hour and an aliquot of the solubilized protein used for protein determination using the Lowry method. […] Individual lipids were visualized with iodine and the cholesteryl ester spot cut out and transferred to scintillation vials to determine the amount of radioactivity.

[3] abbreviates: rat hepatic microsomes, 14C-oleoyl-CoA, 37° C., pH 7.4, read-out: In Vitro ACAT IC50.

By IC50 is commonly meant the point on the concentration scale where inhibition reaches its midpoint. Consider `CN(C(=O)c1ccc(-c2ccccc2)cc1)C1N(C)C(c2ccc(F)cc2)=NC1(C(F)(F)F)C(F)(F)F` (stereo not drawn) [Example 15, N-[4,4-bis(trifluoromethyl)-2-(4-fluorophenyl)-4,5-dihydro-1-methyl-1 H-imidazol-5-yl]-N-methyl-[1,1'-biphenyl]-4-carboxamide], for which the IC50 in assay [1] (setting [3]) is 17 µM; in assay [2], 11 µM. For `CN1C(c2ccc(F)cc2)=NC(C(F)(F)F)(C(F)(F)F)C1=NC(=O)c1ccc(F)cc1` [Example 2, N-[4,4-bis(trifluoromethyl)-2-(4-fluorophenyl)-4,5-dihydro-1-methyl-1H-imidazol-5-ylidene]-4-fluoro-benzamide], in that order: 20 µM and greater than 100 µM.

Regarding `CN1C(c2ccc(F)cc2)=NC(C(F)(F)F)(C(F)(F)F)C1NC(=O)c1ccc(N2CCCCC2)cc1` (stereo not drawn) [Example 31, N-[4,4-bis(trifluoromethyl)-2-(4-fluorophenyl)-4,5-dihydro-1-methyl-1H-imidazol-5-yl]-4-(1-piperidinyl) benzamide], the IC50 in assay [1] (setting [3]) worked out at 10 µM; in assay [2], 13 µM.

On to `CN(C(=O)C12CCC(C)(C(=O)O1)C2(C)C)C1N(C)C(c2ccc(F)cc2)=NC1(C(F)(F)F)C(F)(F)F` (single isomer, unassigned) [Example 25], for which the half-maximal inhibitory concentration (IC50) in assay [1] (setting [3]) came to 41 µM; in assay [2] it was 98 µM. `COc1ccc(OC(=O)N=C2N(C)C(c3ccc(OC)cc3)=NC2(C(F)(F)F)C(F)(F)F)cc1` [Example 121] had an IC50 in assay [1] of 64 µM. Regarding `CC(C)CCCC(=O)N(C)C1N(C)C(c2ccc(F)cc2)=NC1(C(F)(F)F)C(F)(F)F` (stereo not drawn) [Example 18, N-[4,4-bis(trifluoromethyl)-2-(4-fluorophenyl)-4,5-dihydro-1-methyl-1H-imidazol-5-yl]-N,5-dimethyl-hexanamide hydrochloride], the half-maximal inhibitory concentration (IC50) in assay [1] (setting [3]) amounted to 4 µM. Turning to `COc1ccc(C2=NC(C(F)(F)F)(C(F)(F)F)C(N(C)C(=O)CCCC(C)C)N2C)cc1` (stereo not drawn) [Example 34, N-[4,4-bis(trifluoromethyl)-2-(4-methoxyphenyl)-4,5-dihydro-1-methyl-1H-imidazol-5-yl]-N,5-dimethylhexanamide hydrochloride], the IC50 in assay [1] (setting [3]) was 9 µM. The same measure, in the same setting: next, `COc1ccc(C(=O)N(C)C2N(C)C(c3ccc(F)cc3)=NC2(C(F)(F)F)C(F)(F)F)cc1` (stereo not drawn) [Example 12, N-[4,4-bis(trifluoromethyl)-2-(4-fluorophenyl)-4,5-dihydro-1-methyl-1H-imidazol-5-yl]-4-methoxy-N-methylbenzamide]: 6 µM. Regarding `Cc1ccc(OC(=O)N=C2N(C)C(c3ccc(C)cc3)=NC2(C(F)(F)F)C(F)(F)F)cc1` [Example 122], it took 49 µM to reach half-maximal inhibition in assay [1] (IC50).

In the case of `Cc1ccc(C(=O)N=C2N(C)C(c3ccc(C)cc3)=NC2(C(F)(F)F)C(F)(F)F)cc1` [Example 5], the IC50 worked out at 20 µM in assay [1] (setting [3]) and 62 µM in assay [2].

With `CN(C(=O)c1ccc(F)cc1)C1N(C)C(c2ccc(C#N)cc2)=NC1(C(F)(F)F)C(F)(F)F` (stereo not drawn) [Example Q, N-[4,4-bis(trifluoromethyl)-2-(4-cyanophenyl)-4,5-dihydro-1-methyl-1H-imidazol-5-yl]-N-methyl-4-fluorobenzamide], the IC50 in assay [1] (setting [3]) came out at 1.91 µM; in assay [2], 34 µM. For `CCCCCCC(=O)N(C)C1N(C)C(c2ccc(F)cc2)=NC1(C(F)(F)F)C(F)(F)F` (stereo not drawn) [Example 16, N-[4,4-bis(trifluoromethyl)-2-(4-fluorophenyl)-4,5-dihydro-1-methyl-1H-imidazol-5-yl]-N-methylheptanamide hydrochloride] the same measures were 2 µM and 17 µM. For `CN(C(=O)c1ccc(F)cc1)C1N(C)C(c2ccc(F)cc2)=NC1(C(F)(F)F)C(F)(F)F` (stereo not drawn) [Example 10A, N-[4,4-bis(trifluoromethyl)2-(4-fluorophenyl)-4,5-dihydro-1-methyl-1H-imidazol-5-yl]-4-fluorophenyl-N-methylbenzamide] the same measures were 22 µM and 105 µM.

With `CN1C(=O)C(C(F)(F)F)(C(F)(F)F)N=C1c1ccc(F)cc1` [Example 123, 2-(4-fluorophenyl)-3,5-dihydro-3-methyl-4,4-bis(trifluoromethyl)-4H-imidazol-4-one], the IC50 in assay [1] (setting [3]) is greater than 100 µM. Turning to `CN(C(=O)c1ccc(C(C)(C)C)cc1)C1N(C)C(c2ccc(F)cc2)=NC1(C(F)(F)F)C(F)(F)F` (stereo not drawn) [Example 13, N-[4,4-bis(trifluoromethyl)-2-(4-fluorophenyl)-4,5-dihydro-1-methyl-1H-imidazol-5-yl]-4-(1,1-dimethylethyl)-N-methylbenzamide], the values for the 50% inhibitory concentration (IC50) in assay [1] (setting [3]) and in assay [2] were 4 µM and 18 µM, respectively. For the molecule `CN1C(=CC(=O)c2ccc(F)cc2)C(C(F)(F)F)(C(F)(F)F)N=C1c1ccc(F)cc1` [Example 96B, 2-[4,4-bis(trifluoromethyl)-2-(4-fluorophenyl)-4,5-dihydro-1-methyl-1H-imidazol-5-ylidene]-1-(4-fluorophenyl)-1-ethanone], the IC50 in assay [1] (setting [3]) amounted to 19 µM. On the same count and under the same terms, in the case of `CCOc1ccc(C(=O)NC2N(C)C(c3ccc(F)cc3)=NC2(C(F)(F)F)C(F)(F)F)cc1` (stereo not drawn) [Example 30, N-[4,4-bis(trifluoromethyl)-2-(4-fluorophenyl)-4,5-dihydro-1-methyl-1H-imidazol-5-yl]-4-ethoxybenzamide] it was 6 µM.

As to `CCCCCCCCCCCC(=O)N(C)C1N(C)C(c2ccc(F)cc2)=NC1(C(F)(F)F)C(F)(F)F` (stereo not drawn) [Example 17], the IC50 in assay [1] (setting [3]) was 6 µM. For the molecule `CCCCCCCCNC(=O)N(C)C1N(C)C(c2ccc(F)cc2)=NC1(C(F)(F)F)C(F)(F)F` (stereo not drawn) [Example 29, N-[4,4-bis(trifluoromethyl)-2-(4-fluorophenyl)-4,5-dihydro-1-methyl-1H-imidazol-5-yl]-N'-octyl-N-methylurea hydrochloride], the IC50 in assay [1] (setting [3]) is 16 µM.

As to `CN(C(=O)Nc1ccc(F)cc1F)C1N(C)C(c2ccc(F)cc2)=NC1(C(F)(F)F)C(F)(F)F` (stereo not drawn) [Example 28, N-[4,4-bis(trifluoromethyl)-2-(4-fluorophenyl)-4,5-dihydro-1-methyl-1H-imidazol-5-yl]-N'-2,4-difluorophenyl-N-methylurea], the IC50 in assay [1] (setting [3]) was found to be 22 µM. Turning to `CN1C(c2ccc(F)cc2)=NC(C(F)(F)F)(C(F)(F)F)C1NC(=O)c1ccc(F)cc1` (stereo not drawn) [Example 10, N-[4,4-bis-(trifluoromethyl)-2-(4-fluorophenyl)-4,5-dihydro-1-methyl-1H-imidazol-5-yl]-4-fluorobenzamide], the IC50 in assay [1] (setting [3]) amounted to 41 µM.
